Data on 8 cell lines can be found in the supplement of paper PMC9663587.

Compound in the first assay: CC(=O)c1c(C)c2cnc(Nc3ccc(N4CCN(CCOCCOCCOCCNC(=O)COc5cccc6c5C(=O)N(C5CCC(=O)NC5=O)C6=O)CC4)cn3)nc2n(C2CCCC2)c1=O [BSJ-03-123]
Description: GR value, 72 h; higher = faster growth (1 = untreated, <0 = killing).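 Further: breast cancer and non-malignant breast epithelial lines, nine half-log doses, viable cells counted by Hoechst and LIVE/DEAD dye imaging versus time-zero plates and DMSO controls.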 The conditions noted are these: 3.162 µM.
Regarding MDAMB361, the GR value was determined as 0.309 GR.

On to SUM185PE, for which the GR value was found to be 0.758 GR.

As for SUM1315, the GR value came to 0.572 GR.

The assay is the same for the next values; noted with them: 10 µM.
Consider CAL851, for which the GR value was -0.238 GR.

On to HCC202, for which the GR value was determined as 0.0981 GR.

In the case of MDAMB361, the GR value was -0.0683 GR.

With SUM185PE, the GR value worked out at 0.649 GR.

Regarding SUM1315, the GR value was 0.21 GR.

Compound in the next assay: CCN1CCN(Cc2ccc(Nc3ncc(F)c(-c4cc(F)c5nc(C)n(C(C)C)c5c4)n3)nc2)CC1
Described as above. The conditions noted are these: 0.001 µM.
For the cell line CAL851, the GR value was found to be 1.09 GR.

Turning to HCC202, the GR value worked out at 0.929 GR.

HCC1428: the GR value is 0.945 GR.

On to HCC1500, for which the GR value is 1.1 GR.

Consider MDAMB157, for which the GR value came out at 1.01 GR.

Take MDAMB361: the GR value was 0.882 GR.

Consider SUM185PE, for which the GR value came to 0.941 GR.

For the cell line SUM1315, the GR value amounted to 1.08 GR.

The same assay, now with this note: 0.003162 µM.
Consider CAL851, for which the GR value was 0.968 GR.

As to HCC202, the GR value amounted to 0.906 GR.

Consider HCC1428, for which the GR value is 0.654 GR.

Turning to HCC1500, the GR value stood at 0.961 GR.

With MDAMB157, the GR value was determined as 1.08 GR.

Consider MDAMB361, for which the GR value turned out to be 0.631 GR.

Take SUM185PE: the GR value was 0.871 GR.

Take SUM1315: the GR value worked out at 0.8 GR.

The same assay, now with this note: 0.01 µM.
Turning to CAL851, the GR value is 1.08 GR.

For HCC202, the GR value turned out to be 0.876 GR.

For HCC1428, the GR value came out at 0.515 GR.

For HCC1500, the GR value worked out at 0.802 GR.

Consider MDAMB157, for which the GR value amounted to 0.993 GR.

Regarding MDAMB361, the GR value is 0.227 GR.

In the case of SUM185PE, the GR value was 0.877 GR.

In the case of SUM1315, the GR value turned out to be 0.704 GR.

The same assay, now with this note: 0.03162 µM.
Turning to CAL851, the GR value worked out at 1.05 GR.

For HCC202, the GR value amounted to 0.855 GR.

As for HCC1428, the GR value was determined as 0.31 GR.

Regarding HCC1500, the GR value was determined as 0.592 GR.

In the case of MDAMB157, the GR value is 0.928 GR.

For MDAMB361, the GR value was 0.118 GR.

Consider SUM185PE, for which the GR value worked out at 0.874 GR.

For SUM1315, the GR value was found to be 0.436 GR.

The same assay, now with this note: 0.1 µM.
As to CAL851, the GR value came out at 1.12 GR.

As for HCC202, the GR value was 0.809 GR.

For HCC1428, the GR value is 0.228 GR.

Take HCC1500: the GR value was 0.533 GR.

For MDAMB157, the GR value was 0.913 GR.

Take MDAMB361: the GR value was found to be 0.119 GR.

For the cell line SUM185PE, the GR value amounted to 0.742 GR.

With SUM1315, the GR value was 0.402 GR.

The assay is the same for the next values; noted with them: 0.3162 µM.
Turning to CAL851, the GR value was 0.914 GR.

For the cell line HCC202, the GR value worked out at 0.627 GR.

With HCC1428, the GR value was determined as 0.25 GR.

In the case of HCC1500, the GR value was found to be 0.701 GR.

In the case of MDAMB157, the GR value is 0.727 GR.

In the case of MDAMB361, the GR value came out at 0.121 GR.

As for SUM185PE, the GR value is 0.691 GR.

SUM1315: the GR value stood at 0.259 GR.

The same assay, now with this note: 1 µM.
For CAL851, the GR value was 0.617 GR.

As to HCC202, the GR value was determined as 0.642 GR.

As for HCC1428, the GR value is 0.234 GR.

With HCC1500, the GR value worked out at 0.494 GR.

With MDAMB157, the GR value turned out to be 0.578 GR.

For the cell line MDAMB361, the GR value stood at 0.0452 GR.

Turning to SUM185PE, the GR value turned out to be 0.613 GR.

With SUM1315, the GR value amounted to 0.177 GR.

Still in this assay, the particulars now being: 3.162 µM.
As to CAL851, the GR value is -0.0347 GR.

In the case of HCC202, the GR value worked out at 0.545 GR.

For HCC1428, the GR value stood at 0.181 GR.

Turning to HCC1500, the GR value is 0.395 GR.

As to MDAMB157, the GR value amounted to 0.441 GR.

Consider MDAMB361, for which the GR value is -0.189 GR.

For the cell line SUM185PE, the GR value came out at 0.595 GR.

For the cell line SUM1315, the GR value worked out at 0.109 GR.

Still in this assay, the particulars now being: 10 µM.
CAL851: the GR value was -0.233 GR.

For HCC202, the GR value worked out at 0.309 GR.

HCC1428: the GR value worked out at 0.0475 GR.

HCC1500: the GR value came out at 0.195 GR.

Regarding MDAMB157, the GR value is -0.587 GR.

In the case of MDAMB361, the GR value is -0.341 GR.

On to SUM185PE, for which the GR value was 0.5 GR.

For the cell line SUM1315, the GR value is -0.164 GR.

Compound in a further assay: CN(C)C/C=C/C(=O)Nc1ccc(C(=O)N2CCC[C@@H](Nc3ncc(Cl)c(-c4c[nH]c5ccccc45)n3)C2)cc1 [THZ531]
The assay is described as above. The conditions noted are these: 0.0001 µM.
Take CAL851: the GR value amounted to 1.12 GR.

As to HCC202, the GR value was 1.12 GR.

In the case of MDAMB361, the GR value is 0.955 GR.

For the cell line SUM185PE, the GR value was determined as 1.06 GR.

Consider SUM1315, for which the GR value turned out to be 0.9 GR.

The assay is the same for the next values; noted with them: 0.0003162 µM.
For the cell line CAL851, the GR value is 0.975 GR.

As to HCC202, the GR value was 0.893 GR.

As for MDAMB361, the GR value is 0.912 GR.

In the case of SUM185PE, the GR value turned out to be 1 GR.

As to SUM1315, the GR value came out at 1.1 GR.

The assay is the same for the next values; noted with them: 0.001 µM.
With CAL851, the GR value is 0.997 GR.

For HCC202, the GR value was found to be 0.907 GR.

Turning to MDAMB361, the GR value worked out at 0.758 GR.

Regarding SUM185PE, the GR value turned out to be 1.02 GR.

Regarding SUM1315, the GR value stood at 0.822 GR.

The assay is the same for the next values; noted with them: 0.003162 µM.
In the case of CAL851, the GR value worked out at 0.889 GR.

Turning to HCC202, the GR value came out at 1.12 GR.

In the case of MDAMB361, the GR value came out at 0.849 GR.

As to SUM185PE, the GR value turned out to be 1.02 GR.

Take SUM1315: the GR value was 0.987 GR.

Staying with this assay, now noted: 0.01 µM.
With CAL851, the GR value was found to be 0.924 GR.

As to HCC202, the GR value was 0.883 GR.

In the case of MDAMB361, the GR value was 1.06 GR.

For SUM185PE, the GR value amounted to 1.03 GR.

With SUM1315, the GR value was determined as 1.1 GR.

The assay is the same for the next values; noted with them: 0.03162 µM.
CAL851: the GR value amounted to 0.717 GR.

As for HCC202, the GR value is 0.809 GR.

Turning to MDAMB361, the GR value was 0.299 GR.

For the cell line SUM185PE, the GR value amounted to 1.06 GR.

As for SUM1315, the GR value is 1.14 GR.

The same assay, now with this note: 0.1 µM.
For CAL851, the GR value was determined as 0.322 GR.

Regarding HCC202, the GR value amounted to 0.411 GR.

Consider MDAMB361, for which the GR value is -0.82 GR.

Take SUM185PE: the GR value is 0.851 GR.

For the cell line SUM1315, the GR value is 1.04 GR.

Still in this assay, the particulars now being: 0.3162 µM.
Take CAL851: the GR value was determined as 0.0707 GR.

As for HCC202, the GR value stood at 0.0512 GR.

Turning to MDAMB361, the GR value is -0.756 GR.

With SUM185PE, the GR value is -0.187 GR.

For SUM1315, the GR value is 0.685 GR.

The assay is the same for the next values; noted with them: 1 µM.
Turning to CAL851, the GR value is -0.218 GR.

Turning to HCC202, the GR value is 0.151 GR.

Take MDAMB361: the GR value was -0.539 GR.

SUM185PE: the GR value is 0.19 GR.

As to SUM1315, the GR value is -0.604 GR.
